Data taken from US20130065928A1, “BIOMARKERS FOR PI3K-DRIVEN CANCER” (WYETH LLC, priority 2010, published 2013).

Key:
PKN3-T860 = assay: Turn motif (T860) phosphorylation of Y27632-primed PKN3 after kinase inhibitor treatment (Western blot); format: cell-based, human; conditions: WT and KD PKN3, doxycycline 1 μg/ml 5 hours, primed with 10 μM Y27632, inhibitor 7 hours; FIGS. 4 and 5
Source text: (§1) The full-length cDNA of human PKN3 (WT or wt) was amplified by PCR and cloned into a GST-fusion expression vector under the control in a doxycycline (Dox)-inducible promoter. A kinase dead (KD or kd) version of PKN3, which comprises a K588R substitution, was also cloned into the same vector using the same strategy. The proteins were expressed in HEK293T cells transfected with the PKN3 WT and KD constructs.
(§2) For protein extraction, cells were washed twice with cold phosphate-buffered saline (PBS) and lysed at 4° C. in lysis buffer containing 20 mM Tris (pH 7.5), 137 mM NaCl, 15% (vol/vol) glycerol, 1% (vol/vol) Nonidet P-40 (NP-40), 2 mM phenylmethylsulfonyl fluoride, […] of aprotinin per ml, […] leupeptin, 2 mM benzamidine, 1 mM sodium vanadate, 25 mM β-glycerolphosphate, 50 mM NaF, and 10 mM Na-pyrophosphate. Lysates were cleared by centrifugation at 14,000×g for 5 min, and aliquots of the lysates were analyzed for protein expression and enzyme activity (see below). Samples were separated by sodium dodecyl sulfate-polyacrylamide gel electrophoresis (SDS-PAGE) and transferred to nitrocellulose filters (Schleicher & Schuell). […] Bound antibody was detected with anti-mouse-, anti-goat, or anti-rabbit-conjugated alkaline phosphatase (Santa Cruz Biotechnology) in TBST, washed, and developed with nitroblue tetrazolium and 5-bromo-4-chloro-3-indolylphosphate (Promega). […]

AKT-S473 = assay: Phosphorylation of AKT-S473, a target of mTORC2 (Western blot); format: cell-based; conditions: PKN3-transfected cells, inhibitor 7 hours; FIGS. 4 and 5
Protocol: (§3) For protein extraction, cells were washed twice with cold phosphate-buffered saline (PBS) and lysed at 4° C. in lysis buffer containing 20 mM Tris (pH 7.5), 137 mM NaCl, 15% (vol/vol) glycerol, 1% (vol/vol) Nonidet P-40 (NP-40), 2 mM phenylmethylsulfonyl fluoride, […] of aprotinin per ml, […] leupeptin, 2 mM benzamidine, 1 mM sodium vanadate, 25 mM β-glycerolphosphate, 50 mM NaF, and 10 mM Na-pyrophosphate. Lysates were cleared by centrifugation at 14,000×g for 5 min, and aliquots of the lysates were analyzed for protein expression and enzyme activity (see below). Samples were separated by sodium dodecyl sulfate-polyacrylamide gel electrophoresis (SDS-PAGE) and transferred to nitrocellulose filters (Schleicher & Schuell). Filters were blocked in TBST buffer (10 mM Tris-HCl [pH 7.5], 150 mM NaCl, 0.05% [vol/vol] Tween 20, 0.5% [wt/vol] sodium azide) containing 5% (wt/vol) dried milk. The respective antibodies were added in TBST at appropriate dilutions. Bound antibody was detected with anti-mouse-, anti-goat, or anti-rabbit-conjugated alkaline phosphatase (Santa Cruz Biotechnology) in TBST, washed, and developed with nitroblue tetrazolium and 5-bromo-4-chloro-3-indolylphosphate (Promega). Alternatively, horseradish peroxidase-conjugated secondary antibodies were used and developed by enhanced chemiluminescence (Amersham).
(§4) PKN antibodies have been described in Leenders, 2004. […]

[1] = test system: HEK293T cells transfected with wild-type PKN3; assay: PKN3-induced morphology changes in cells (photomicrographs); format: cell-based; conditions: FIG. 6, panel C
Source text: FIG. 6 depicts photomicrographs of HEK293T cells transfected with wild-type (panels A, B and C) or kinase-dead (panels D, E and F) PKN3 constructs under control of a doxycycline responsive promoter, in the absence of doxycycline (panels A and D), in the presence of doxycycline (panels B and E) or in the presence of doxycycline and WAY-125132 (panels C and F).
The effects of WAY-125132 on PKN3-induced morphology changes in cells were examined.

PKN3-T718 = assay: Activation loop (T718) phosphorylation of Y27632-primed PKN3 after kinase inhibitor treatment (Western blot); format: cell-based, human; conditions: WT and KD PKN3, doxycycline 1 μg/ml 5 hours, primed with 10 μM Y27632, inhibitor 7 hours; FIGS. 4 and 5
Source text: as §1, §2

S6K-ST389 = assay: Phosphorylation of S6K-ST389, a target of mTORC1 (Western blot); format: cell-based; conditions: PKN3-transfected cells, inhibitor 7 hours; FIGS. 4 and 5
Protocol: as §3, §4

PKN3 = molecular target: T1, PKN3 (Homo sapiens, UniProt Q6P5Z2); assay: Kinase activity of PKN3 in transfected cells, phospho-GSKα read-out (Western blot); format: cell-based; conditions: cells transfected with WT PKN3; changing concentrations; FIG. 2
T1 construct: The full-length cDNA of human PKN3 (WT or wt) was amplified by PCR and cloned into a GST-fusion expression vector; GST; expressed in transfected cells; host or cells: HEK293T
T1 sequence (Q6P5Z2 whole entry, the tested form may be a part): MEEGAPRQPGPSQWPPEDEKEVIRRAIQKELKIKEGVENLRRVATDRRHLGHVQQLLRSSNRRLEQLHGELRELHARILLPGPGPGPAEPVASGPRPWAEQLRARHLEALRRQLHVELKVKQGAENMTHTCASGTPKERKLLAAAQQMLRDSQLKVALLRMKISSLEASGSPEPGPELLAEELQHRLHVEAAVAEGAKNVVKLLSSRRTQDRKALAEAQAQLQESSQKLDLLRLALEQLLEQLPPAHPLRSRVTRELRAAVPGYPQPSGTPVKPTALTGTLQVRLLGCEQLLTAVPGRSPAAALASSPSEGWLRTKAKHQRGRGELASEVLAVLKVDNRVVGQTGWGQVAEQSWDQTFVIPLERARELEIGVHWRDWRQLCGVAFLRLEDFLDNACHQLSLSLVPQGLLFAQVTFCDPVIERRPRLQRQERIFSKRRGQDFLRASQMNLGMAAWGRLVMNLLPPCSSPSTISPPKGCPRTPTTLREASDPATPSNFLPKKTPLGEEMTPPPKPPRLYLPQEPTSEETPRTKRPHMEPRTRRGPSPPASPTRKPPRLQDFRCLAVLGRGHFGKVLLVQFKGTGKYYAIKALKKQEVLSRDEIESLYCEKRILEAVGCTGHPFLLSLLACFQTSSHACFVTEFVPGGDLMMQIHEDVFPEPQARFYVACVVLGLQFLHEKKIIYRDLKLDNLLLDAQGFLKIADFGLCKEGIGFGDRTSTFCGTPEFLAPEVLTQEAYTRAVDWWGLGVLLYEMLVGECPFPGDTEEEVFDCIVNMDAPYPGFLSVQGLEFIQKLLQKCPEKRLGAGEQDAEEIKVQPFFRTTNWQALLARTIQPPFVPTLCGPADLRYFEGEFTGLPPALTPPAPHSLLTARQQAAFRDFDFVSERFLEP
Source text: as §1, with “constructs. […] WT PKN3 is phosphorylated at the turn motif threonine (P*-PKN3^T860) and phosphorylates the GSKα substrate, whereas the KD version does neither (FIG. 1).” for “constructs.”
as §3
Various ATP-type kinase inhibitors were assessed for their ability to inhibit the kinase activity of both recombinant wildtype (WT) and kinase dead (KD) versions of PKN3.

kinase dead PKN3 = molecular target: T2, kinase dead PKN3 (Homo sapiens, UniProt Q6P5Z2, K588R); assay: Priming of kinase dead PKN3 for turn motif threonine phosphorylation by ATP binding pocket competitive inhibitors (Western blot); format: cell-based; conditions: KD PKN3 (K588R) in transfected cells; changing concentrations; FIG. 3
T2 construct: The full-length cDNA of human PKN3 (WT or wt) was amplified by PCR and cloned into a GST-fusion expression vector; GST; expressed in transfected cells; host or cells: HEK293T
T2 sequence (Q6P5Z2 whole entry K588R, the tested form may be a part): as the sequence (Q6P5Z2 whole entry, the tested form may be a part) above, with K588R counted along it
Source text: as §1, with “constructs. […] WT PKN3 is phosphorylated at the turn motif threonine (P*-PKN3^T860) and phosphorylates the GSKα substrate, whereas the KD version does neither (FIG. 1).” for “constructs.”
as §3

PKN1 = assay: Phosphorylated PKN1 (Western blot); format: cell-based; conditions: PKN3-transfected cells, inhibitor 7 hours; FIGS. 4 and 5, panels C
Protocol: as §3, with “(Amersham). […]” for “(Amersham).”

PKN2 = assay: Phosphorylated PKN2 (Western blot); format: cell-based; conditions: PKN3-transfected cells, inhibitor 7 hours; FIGS. 4 and 5, panels C
Protocol: as §3, with “(Amersham). […]” for “(Amersham).”

Row | Structure (SMILES) | inhibition of PKN3 T860 phosphorylation (PKN3-T860) | inhibition of phosphorylation of AKT-S473 (AKT-S473) | effect on transformed phenotype of doxycycline treated cells transfected with WT PKN3 [1] | inhibition of PKN3 T718 phosphorylation (PKN3-T718) | inhibition of phosphorylation of S6K-ST389 (S6K-ST389) | inhibition of kinase activity of kinase active phosphorylated PKN3 (phospho-GSKα read-out) (PKN3) | priming of kinase dead PKN3 to become phosphorylated at the turn motif threonine (kinase dead PKN3) | effect on PKN1 (PKN1) | effect on PKN2 (PKN2)
1 | Cl.Cl.N=C(N)NN=C(Cn1ccnc1)c1ccc(Cl)cc1Cl [WAY-125132, 2-[1-(2,4-Dichlorophenyl)-2-(1H-imidazol-1-yl)ethylidene]hydrazinecarboximidamide dihydrochloride] | inhibit T860 phosphorylation in a dose dependent manner | inhibit the phosphorylation | reversed this effect | not T718 phosphorylation | inhibit the phosphorylation of S6K-ST389 |  |  |  | 
2 | CCc1[nH]c(-c2ccc(OC)cc2)nc1-c1ccncc1 [SB202474] |  |  |  |  |  | not | not |  | 
3 | Oc1ccc(-c2nc(-c3ccncc3)c(-c3ccc(F)cc3)[nH]2)cc1 [SB202190] |  |  |  |  |  | inhibit the kinase activity of kinase active phosphorylated PKN3 in a concentration dependent manner | primed kinase dead PKN3 to become phosphorylated at the turn motif threonine in a concentration dependent manner |  | 
4 | CO[C@H]1C[C@@H]2CC[C@@H](C)[C@@](O)(O2)C(=O)C(=O)N2CCCC[C@H]2C(=O)O[C@H]([C@H](C)C[C@@H]2CC[C@@H](OC(=O)C(C)(CO)CO)[C@H](OC)C2)CC(=O)[C@H](C)/C=C(\C)[C@@H](O)[C@@H](OC)C(=O)[C@H](C)C[C@H](C)/C=C/C=C/C=C/1C [CCI-779, (3S,6R,7E,9R,10R,12R,14S,15E,17E,19E,21S,23S,26R,27R,34aS)-9,10,12,13,14,21,22,23,24,25,26,27,32,33,34,34a-Hexadecahydro-9,27-dihydroxy-3-[(1R)-2-[(1S,3R,4R)-4-hydroxy-3-methoxycyclohexyl]-1-methylethyl]-10,21-dimethoxy-6,8,12,14,20,26-hexamethyl-23,27-epoxy-3H-pyrido[2,1-c][1,4]oxaazacyclohentriacontine-1,5,11,28,29(4H,6H,31H)-pentone 4′-[2,2-bis(hydroxymethyl)propionate]] | had no effect | had no effect |  | had no effect | inhibit S6K-ST389 |  |  | had no effect | had no effect
5 | C[C@@H](N)[C@H]1CC[C@H](C(=O)Nc2ccncc2)CC1 [Y27632] |  |  |  |  |  | inhibit the kinase activity of kinase active phosphorylated PKN3 in a concentration dependent manner | primed kinase dead PKN3 to become phosphorylated at the turn motif threonine in a concentration dependent manner |  | 
